The results in this text go back to patent US10603298B2, “Succinate dehydrogenase inhibitors (SDHi's)” (Medical Research Council, priority 2014, dated 2020).

In experiment [1] the test system is rat brain transient middle cerebral artery occlusion (tMCAO) IR injury. The experiment is described as follows: In vivo rat brain ischaemia and reperfusion (tMCAO): neurological score, infarct, histology. As to conditions: for Average Neurological Score / Median Neurological Score: dimethyl malonate 6 mg/kg/min i.v. infusion. The arrangement: Median Neurological Score / Average Neurological Score: scale not given here. From the text: The following murine models of warm ischaemia and/or IR injury were used: global ischaemia of ex vivo perfused mouse heart; in vivo mouse left descending coronary artery (LAD) ligation; in vivo rat brain transient middle cerebral artery occlusion (tMCAO); in vivo mouse kidney ischaemia by monolateral occlusion of the renal hilum; in vivo global ischaemia of the liver following cervical dislocation. The modelling of metabolic pathways in the ischaemic myocardium was done as described previously^11. The cell models of IR injury used were adult isolated primary rat cardiomyocytes and the mouse C2C12 myoblast cell line. Fluorescence within cardiomyocytes was assessed by laser scanning confocal microscopy. DHE fluorescence was used to measure ROS production, TMRM fluorescence in de-quench mode was used for mitochondrial membrane potential and NAD(P)H autofluorescence was used to assess the reduction potential of the NAD(P)H pools^8. To assess metabolic pathways in the ex vivo perfused mouse heart ^13C-labelled glucose, glutamine or aspartate were infused into the isolated heart and the ^13C isotopologues of CAC metabolites were then quantified by LC-MS. The effects of metabolic inhibitors on ischaemic metabolite accumulation and the distribution of ^13C-labels were assessed by i.v. infusion of metabolic inhibitors followed by LC-MS analysis of tissue metabolites. The redox state of the cardiac CoQ pool was assessed by LC. The amelioration of in vivo IR injury by metabolic inhibitors was assessed by i.v. administration of the inhibitors followed by measurement of the infarct size in the heart by triphenyltetrazolium chloride staining and in the brain by determining neurological function and infarct size by histology. Male spontaneously hypertensive stroke prone (SHRSP) rats from the colony maintained at the University of Glasgow (270-310 g) were anaesthetised with 5% isoflurane in oxygen and were intubated and ventilated throughout surgery (˜2.5% isoflurane/oxygen). Body temperature was maintained at 37±0.5° C. Animals underwent pre-stroke burrhole surgery^35 before transient middle cerebral artery occlusion (tMCAO, 45 min). Briefly, a silicone-coated monofilament was advanced (Doccol Corporation, USA) was advanced through the common carotid artery to block the origin of the MCA^36. Animals were maintained under anaesthesia during ischaemia. Immediately following removal of the filament, or after 5 mins of reperfusion, the brain was removed following cervical dislocation and infarct tissue separated from surrounding tissue on the ipsilateral side and snap frozen in liquid nitrogen for metabolomic analysis. Corresponding regions were taken from the contralateral side. […] These rats were then sacrificed by transcardiac perfusion fixation and the infarct area was assessed across 7 coronal levels following hematoxylin and eosin staining^39.

Experiment [2] deals with adult primary rat cardiomyocytes. The experiment is described as follows: Mitochondrial membrane potential (TMRM) in primary cardiomyocytes during in situ IR. In kind it is cell-based. The following applies: 4 mM in ischaemic buffer. The procedure:
FIG. 15: Tracking mitochondrial membrane potential in primary cardiomyocytes during in situ IR. Primary rat cardiomyocytes were subjected to 40 min ischaemia and reoxygenation and mitochondrial membrane potential was tracked throughout the experiment by measurement of tetramethylrhoadmine (TMRM) fluorescence. […] Average traces from at least three replicate experiments are shown. (a) TMRM signal throughout the entire experiment.
Male Sprague-Dawley rats (300-370 g) were terminally anaesthetised via IP injections of 200 mg/kg sodium pentobarbitone and 330 U/kg heparin. Hearts were excised and retrograde perfused on a Langendorff-perfusion system with 13 mL/min oxygenated KH buffer at 37° C. […]
Cells were imaged within 36 hours of plating. […] Simulated ischaemia was achieved by replacing the buffer with a pre-gassed, hypoxic recording buffer simulating ischaemia (as above but lacking glucose and containing 10 mM sodium lactate, 14.8 mM KCl; pH 6.4) and by covering the heated stage with a transparent, gas-impermeant lid, forming a small chamber into which argon was forced to maintain hypoxia. pO2 was routinely measured as <2.0 mm Hg during simulated ischaemia. […]
Mitochondrial membrane potential was measured using tetramethylrhodamine, methyl ester (TMRM, Life Technologies) in dequench mode. […] TMRM fluorescence was excited at 543 nm and emission was collected using a LP 560 filter.

`COC(=O)CC(=O)OC` [dimethyl malonate]: in experiment [1] (Baseline, tMCAO rats), the “Average Neurological Score” value was determined as 31.67 and the “Median Neurological Score” value was determined as 32.00. Besides, in experiment [1] (Day 1 after tMCAO), the “Average Neurological Score” value was 22.67 and the “Median Neurological Score” value amounted to 22.00. Besides, in experiment [1] (Day 2 after tMCAO), the “Average Neurological Score” value is 24.00 and the “Median Neurological Score” value came out at 24.00. Moreover, in experiment [1] (Day 3 after tMCAO), the “Average Neurological Score” value amounted to 24.33 and the “Median Neurological Score” value is given as 25.00. In addition, in experiment [1] (i.v. infusion during rat tMCAO), the “neurological function associated with stroke” value is “preventing the decline in neurological function”, the “protection against brain IR injury” value was “protective” and the “volume of infarcted brain tissue caused by IR injury” value is given as “decreasing the volume of infarcted brain tissue”. Further, in experiment [1] (i.v. infusion during rat tMCAO, hematoxylin and eosin), the “pyknotic nuclear morphology and vacuolation of the neuropil (histology)” value is “reducing the pyknotic nuclear morphology and vacuolation of the neuropil”. For the same compound, in experiment [2], the “rate of mitochondrial polarisation upon reperfusion” value is “diminished the rate of mitochondrial polarisation upon reperfusion”.
